Measurements as given in EPA's ToxValDB 9.5.
“And” between values parts separate entries of the source, which are not always exact repeats. Identical values can stand only once.

Key:
Mus musculus = settings: chronic; duration: 50 weeks; oral; drinking water; F; Swiss; body weight
Rattus norvegicus [1] = settings: for LEL: uterotrophic, Active; for NOEL / LOEL: Hershberger
Rattus norvegicus [2] = settings: acute, oral, gavage
Rattus norvegicus [3] = settings: subchronic; duration: 13 weeks; oral; diet; F; Fischer 344; Body Weight Changes: decrease + Histopathology: Bone marrow-Reticulum-cell hyperplasia Bone marrow-Myeloid depletion
[4] = duration: 3 days, injection, subcutaneous
[5] = duration: 12 days, injection, subcutaneous, Wistar, active + Androgenic + androgenic
[6] = duration: 10 days, oral, gavage, Sprague-Dawley, active + Antiandrogenic + anti-androgenic

For `O=[N+]([O-])c1ccc(O)c([N+](=O)[O-])c1` [2,4-Dinitrophenol], the LOAEL (Mus musculus) was 0.07 mg/kg-day.
With `CCCCC(CC)COC(=O)c1ccc(O)cc1` (stereo unspecified) [2-Ethylhexyl p-hydroxybenzoate] the LEL (Rattus norvegicus [1]; [4]) was 200 mg/kg-day and 199 mg/kg-day.
Compound `Oc1ccccc1-c1ccccc1` [2-Phenylphenol] has an NOEL (Rattus norvegicus [1]; duration: 10 days, oral, gavage, Sprague-Dawley, inactive + Negative + Negative + anti-androgenic + decrease in ASTs, NS (1.6 d) delay PPS / accompanied by "minor" increase in liver wt and…) of 250 mg/kg-day.
With `CCCCCCCCc1ccc(O)cc1` [4-Octylphenol] the LD50 (Rattus norvegicus [2]; albino) was 1100 mg/kg and 1200 mg/kg and 1400 mg/kg and the LEL (Rattus norvegicus [1]; duration: 4 days, oral) was 100 mg/kg-day.
In the case of `Cc1c2ccccc2c(C)c2c1ccc1ccccc12` [7,12-Dimethylbenz(a)anthracene], the LEL (Rattus norvegicus [1]; duration: 1 days, injection, subcutaneous) is reported as 15 mg/kg-day.
In the case of `CC[C@H](C)[C@H]1O[C@]2(C=C[C@@H]1C)C[C@@H]1C[C@@H](C/C=C(\C)[C@@H](O[C@H]3C[C@H](OC)[C@@H](O[C@H]4C[C@H](OC)[C@@H](O)[C@H](C)O4)[C@H](C)O3)[C@@H](C)/C=C/C=C3\CO[C@@H]4[C@H](O)C(C)=C[C@@H](C(=O)O1)[C@]34O)O2.CO[C@H]1C[C@H](O[C@H]2[C@H](C)O[C@@H](O[C@@H]3/C(C)=C/C[C@@H]4C[C@@H](C[C@]5(C=C[C@H](C)[C@@H](C(C)C)O5)O4)OC(=O)[C@@H]4C=C(C)[C@@H](O)[C@H]5OC/C(=C\C=C\[C@@H]3C)[C@]54O)C[C@@H]2OC)O[C@@H](C)[C@@H]1O` [Abamectin], the NOEL (Rattus norvegicus [1]; duration: 10 days, oral, gavage, Sprague-Dawley, inactive + Negative + Negative + anti-androgenic + negative) is reported as 1.5 mg/kg-day.
Work on `Nc1ncn[nH]1` [Amitrole] yielded an NOEL (Rattus norvegicus [1]; duration: 10 days, oral, gavage, Wistar, inactive + Negative + Negative + anti-androgenic + negative on gonad/AST / significant thyroid effects beginning at 25 / increased SV wt …) of 125 mg/kg-day.
`COC(=O)Nc1nc2ccccc2[nH]1` [Carbendazim] showed an LD50 (Rattus norvegicus [2]; Harlan Sprague Dawley) of over 5050 mg/kg and an NOEL (Rattus norvegicus [1]; duration: 10 days, oral, gavage, Wistar, inactive + Negative + Negative + Neither + effects on fertility, reduced testis/epididymal wt and abnormal histo in P0, fertility) of 100 mg/kg-day.
`CCOC(=O)C(C)(C)Oc1ccc(Cl)cc1` [Clofibrate] gave an LEL (Rattus norvegicus [1]; duration: 3 days, oral) of 4 mg/kg-day.
In the case of `O=c1oc2cc(O)ccc2c2oc3cc(O)ccc3c12` [Coumestrol], the LEL (Rattus norvegicus [1]; [4]) is reported as 1 mg/day.
Work on `CC(C)[C@H](C(=O)O[C@H](C#N)c1cccc(Oc2ccccc2)c1)c1ccc(Cl)cc1` [Esfenvalerate] yielded an NOEL (Rattus norvegicus [1]; duration: 10 days, oral, gavage, Sprague-Dawley, inactive + Negative + Negative + neither + negative) of 9 mg/kg-day.
For `C[C@]12CC[C@@H]3c4ccc(OC(=O)c5ccccc5)cc4CC[C@H]3[C@@H]1CC[C@@H]2O` [Estradiol benzoate], the LOEL (Rattus norvegicus [1]; duration: 7 days, injection, subcutaneous, Wistar, active + Androgenic + androgenic) was 0.0025 mg/kg-day.
For `CCCSP(=O)(OCC)SCCC` [Ethoprop], the NOEL (Rattus norvegicus [1]; duration: 10 days, oral, gavage, Sprague-Dawley, active + Negative + Antiandrogenic + anti-androgenic + decrease in serum testosterone, decrease in epididymal wt at 6 mg/kg / thyroid …) was 8 mg/kg-day.
`CCOC(=O)c1ccc(O)cc1` [Ethylparaben] gave an LEL (Rattus norvegicus [1]; [4]) of 180 mg/kg-day.
`CC(C)(C)NC(=O)[C@H]1CC[C@H]2[C@@H]3CC[C@H]4NC(=O)C=C[C@]4(C)[C@H]3CC[C@]12C` [Finasteride] was tested, and the LOEL (Rattus norvegicus [1]; duration: 5 days, oral, gavage, Sprague-Dawley, active + Antiandrogenic + anti-androgenic + decreased age at PPS at 20mg/kg, increased at 80 mg/kg (with 7.8% increased liver wt at high …) was 20 mg/kg-day and 25 mg/kg-day and the LOEL (Rattus norvegicus [1]; duration: 7 days, oral, gavage, Sprague-Dawley, active + Antiandrogenic + anti-androgenic + decreased age at PPS at 20mg/kg, increased at 80 mg/kg (with 7.8% increased liver wt at high …) was 20 mg/kg-day and 25 mg/kg-day.
In the case of `O=C1O[C@H]([C@@H](O)CO)C(O)=C1O` [L-Ascorbic acid], the NOEL (Rattus norvegicus [3]) is reported as under 2400 mg/kg-day and the LEL (Rattus norvegicus [1]; duration: 20 days, injection, subcutaneous) is reported as 25 mg/kg-day.
`C[C@]12C=CC(=O)C[C@@H]1CC[C@@H]1[C@@H]2CC[C@@]2(C)[C@H]1CC[C@]2(C)O` [Methyl-1-testosterone] showed an LOEL (Rattus norvegicus [1]; duration: 10 days, injection, subcutaneous, Wistar, active + Androgenic + androgenic) of 1 mg/kg-day, an LOEL (Rattus norvegicus [1]; [5]) of 0.3 mg/kg-day and an NOEL (Rattus norvegicus [1]; [5]) of 0.03 mg/kg-day.
`CC#C[C@]1(O)CC[C@H]2[C@@H]3CCC4=CC(=O)CCC4=C3[C@@H](c3ccc(N(C)C)cc3)C[C@@]21C` [Mifepristone] gave an LOEL (Rattus norvegicus [1]; [6]) of 25 mg/kg-day, an NOEL (Rattus norvegicus [1]; [6]) of 10 mg/kg-day and an LEL (Rattus norvegicus [1]; duration: 4 days, injection, intraperitoneal) of 100 mg/kg-day.
